Data taken from patent US10874743B2, “IRAK degraders and uses thereof” (Kymera Therapeutics, Inc., priority 2017, dated 2020).

The compounds below were run against T1, IRAK4 (Homo sapiens, UniProt Q9NWZ3) (assay: PBMC degradation assay (western blot, % IRAK4 degraded after 4 hours)). Settings: human PBMCs.
T1 sequence (Q9NWZ3 1-460): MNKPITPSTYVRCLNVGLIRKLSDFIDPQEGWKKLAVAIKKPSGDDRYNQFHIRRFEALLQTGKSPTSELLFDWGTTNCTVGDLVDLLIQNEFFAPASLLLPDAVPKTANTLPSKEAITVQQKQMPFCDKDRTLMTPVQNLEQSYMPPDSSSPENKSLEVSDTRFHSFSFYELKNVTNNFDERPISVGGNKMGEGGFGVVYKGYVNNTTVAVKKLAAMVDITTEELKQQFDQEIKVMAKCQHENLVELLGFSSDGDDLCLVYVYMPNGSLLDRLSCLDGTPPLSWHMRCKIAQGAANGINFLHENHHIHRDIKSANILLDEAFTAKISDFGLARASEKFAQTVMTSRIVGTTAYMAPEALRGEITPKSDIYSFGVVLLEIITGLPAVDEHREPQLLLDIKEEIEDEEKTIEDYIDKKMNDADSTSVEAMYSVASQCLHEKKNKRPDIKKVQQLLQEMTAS
Type: cell-based
Description: Protocol summary of PBMC degradation studies from compound treatment through quantitation.
PBMC culture medium: Human peripheral blood mononuclear cells (PBMCs): RPMI+10% FBS (Heat-inactivated)+1% P/S.
Cells were cultured at a minimum of 2.5×10^6 c/mL. • PBMCs were incubated @ 37° C./5% CO2 and allowed to rest overnight. • Following overnight recovery, a cell count/viability assessment by trypan blue exclusion was performed. Cells densities were adjusted back to 2.5×10^6 c/mL (proceed with plating only if viability >80%). • In a 6 well plate, 2.0 mL of cells were added to each well for a minimum of 5×10^6 CT per treatment condition. Compounds dilutions were prepared from 20 mM stock and were added at a final 1000× dilution (0.1% DMSO concentration). • At the end of treatment, cells were harvested and spun @ 1800 rpm for 5 min. 1×PBS wash and spun again @ 1800 rpm for 5 min. Cell pellets were frozen and stored at −80° C. until further processing. • Lysates were generated by resuspending in lysis buffer. Protein quantification was performed with a BCA kit. • 20 μg of protein were loaded per lane and run on a 26-well 4-12% Bis-Tris SDS-page gel. • Transfers were performed on PVDF membranes using the BioRad Mixed MW turbo program for 7 min. • Membranes were blocked for one hour on a rocker at room temperature. • Primary antibodies were incubated overnight at 4° C. on a rocker. • Membranes were washed 3×TBST, 5 min each. • Secondaries were added and incubated for one hour on a rocker at room temperature. • Membranes were washed 3×TBST, 5 min each and rinsed well with deionized H2O. Membranes were scanned using the Licor Odessey CLx and bands were quantified using Image Studio Lite Version 5.2 software.
PBMC results at 4 hours. The letter codes indicate the percentage of IRAK4 degraded after 4 hours: A (>50% degradation), B (>20-50% degradation) and C (<20% degradation)

Row | SMILES | PBMC % IRAK4 Degradation
1 | NC(=O)c1nn(-c2ccc(CNCCOCCOCCNc3cccc4c3C(=O)N(C3CCC(=O)NC3=O)C4=O)cc2)cc1NC(=O)c1coc(-c2ccnc(NCC(F)(F)F)c2)n1 (stereo not shown) [I-171, N-[3-carbamoyl-1-[4-[[2-[2-[2-[[2-(2,6-dioxo-3-piperidyl)-1,3-dioxo-isoindolin-4-yl]amino]ethoxy]ethoxy]ethylamino]methyl]phenyl]pyrazol-4-yl]-2-[2-(2,2,2-trifluoroethylamino)-4-pyridyl]oxazole-4-carboxamide] | A (>50% degradation)
2 | NC(=O)c1nn(-c2ccc(C(=O)NCCOCCOCCOCCOCCNc3cccc4c3C(=O)N(C3CCC(=O)NC3=O)C4=O)cc2)cc1NC(=O)c1coc(-c2ccnc(NCC(F)(F)F)c2)n1 (stereo not shown) [I-53] | A (>50% degradation)
3 | NC(=O)c1nn(C2CCN(C(=O)COCCOCCNc3cccc4c3C(=O)N(C3CCC(=O)NC3=O)C4=O)CC2)cc1NC(=O)c1coc(-c2ccnc(NCC(F)(F)F)c2)n1 (stereo not shown) [I-154] | B (>20-50% degradation)
4 | NC(=O)c1nn(C2CCN(C(=O)NCCOCCOCCNc3cccc4c3C(=O)N(C3CCC(=O)NC3=O)C4=O)CC2)cc1NC(=O)c1coc(-c2ccnc(NCC(F)(F)F)c2)n1 (stereo not shown) [I-145, N-[3-carbamoyl-1-[1-[2-[2-[2-[[2-(2,6-dioxo-3-piperidyl)-1,3-dioxo-isoindolin-4-yl]amino]ethoxy]ethoxy]ethylcarbamoyl]-4-piperidyl]pyrazol-4-yl]-2-[2-(2,2,2-trifluoroethylamino)-4-pyridyl]oxazole-4-carboxamide] | C (<20% degradation)
5 | NC(=O)c1nn(-c2ccc(C(=O)NCCOCCOCCOCCNc3cccc4c3C(=O)N(C3CCC(=O)NC3=O)C4=O)cc2)cc1NC(=O)c1coc(-c2ccnc(NCC(F)(F)F)c2)n1 (stereo not shown) [I-128] | A (>50% degradation)
6 | NC(=O)c1nn(C2CN(C(=O)COCCOCCOCCNc3cccc4c3C(=O)N(C3CCC(=O)NC3=O)C4=O)C2)cc1NC(=O)c1coc(-c2ccnc(NCC(F)(F)F)c2)n1 (stereo not shown) [I-158] | C (<20% degradation)
7 | NC(=O)c1nn(-c2ccc(C(=O)NCCCCCCCCCCCNc3cccc4c3C(=O)N(C3CCC(=O)NC3=O)C4=O)cc2)cc1NC(=O)c1coc(-c2ccnc(NCC(F)(F)F)c2)n1 (stereo not shown) [I-133] | B (>20-50% degradation)
8 | NC(=O)c1nn(C2CN(C(=O)COCCOCCOCCOCCNc3cccc4c3C(=O)N(C3CCC(=O)NC3=O)C4=O)C2)cc1NC(=O)c1coc(-c2ccnc(NCC(F)(F)F)c2)n1 (stereo not shown) [I-157] | C (<20% degradation)
9 | NC(=O)c1nn(-c2ccc(C(=O)NCCCCNC(=O)COc3cccc4c3C(=O)N(C3CCC(=O)NC3=O)C4=O)cc2)cc1NC(=O)c1coc(-c2ccnc(NCC(F)(F)F)c2)n1 (stereo not shown) [I-111] | B (>20-50% degradation)
10 | NC(=O)c1nn(-c2ccc(C(=O)NCCCCCCCCNC(=O)COc3cccc4c3C(=O)N(C3CCC(=O)NC3=O)C4=O)cc2)cc1NC(=O)c1coc(-c2ccnc(NCC(F)(F)F)c2)n1 (stereo not shown) [I-109] | B (>20-50% degradation)
11 | NC(=O)c1nn(-c2ccc(C(=O)NCCOCCOCCNc3cccc4c3CN(C3CCC(=O)NC3=O)C4=O)cc2)cc1NC(=O)c1coc(-c2ccnc(NCC(F)(F)F)c2)n1 (stereo not shown) [I-117, N-(3-carbamoyl-1-(4-((2-(2-(2-((2-(2,6-dioxopiperidin-3-yl)-1-oxoisoindolin-4-yl)amino)ethoxy)ethoxy)ethyl)carbamoyl)phenyl)-1H-pyrazol-4-yl)-2-(2-((2,2,2-trifluoroethyl)amino)pyridin-4-yl)oxazole-4-carboxamide] | A (>50% degradation)
12 | O=C1CCC(N2C(=O)c3cccc(NCCOCCOCCNCc4cccc(-n5cc(NC(=O)c6coc(-c7ccnc(NCC8CC8)c7)n6)c(C(F)(F)F)n5)c4)c3C2=O)C(=O)N1 (stereo not shown) [I-186, 2-[2-(Cyclopropylmethylamino)-4-pyridyl]-N-[1-[3-[[2-[2-[2-[[2-(2,6-dioxo-3-piperidyl)-1,3-dioxo-isoindolin-4-yl]amino]ethoxy]ethoxy]ethylamino]methyl]phenyl]-3-(trifluoromethyl)pyrazol-4-yl]oxazole-4-carboxamide] | C (<20% degradation)
13 | O=C1CCC(N2C(=O)c3cccc(NCCOCCOCCNC(=O)c4ccc(-n5cc(NC(=O)c6coc(-c7ccnc(NCC(F)(F)F)c7)n6)c(C(F)(F)F)n5)cc4)c3C2=O)C(=O)N1 (stereo not shown) [I-134] | C (<20% degradation)
14 | NC(=O)c1nn(-c2ccc(C(=O)NCCNCCCCCNc3cccc4c3C(=O)N(C3CCC(=O)NC3=O)C4=O)cc2)cc1NC(=O)c1coc(-c2ccnc(NCC(F)(F)F)c2)n1 (stereo not shown) [I-144, N-[3-carbamoyl-1-[4-[2-[5-[[2-(2,6-dioxo-3-piperidyl)-1,3-dioxo-isoindolin-4-yl]amino]pentylamino]ethylcarbamoyl]phenyl]pyrazol-4-yl]-2-[2-(2,2,2-trifluoroethylamino)-4-pyridyl]oxazole-4-carboxamide] | A (>50% degradation)
15 | NC(=O)c1nn(-c2ccc(C(=O)NCCOCCNc3cccc4c3C(=O)N(C3CCC(=O)NC3=O)C4=O)cc2)cc1NC(=O)c1coc(-c2ccnc(NCC(F)(F)F)c2)n1 (stereo not shown) [I-130] | A (>50% degradation)
16 | NC(=O)c1nn(-c2ccc(C(=O)NCCC#CC#CCCNc3cccc4c3C(=O)N(C3CCC(=O)NC3=O)C4=O)cc2)cc1NC(=O)c1coc(-c2ccnc(NCC(F)(F)F)c2)n1 (stereo not shown) [I-179, N-[3-carbamoyl-1-[4-[8-[[2-(2,6-dioxo-3-piperidyl)-1,3-dioxo-isoindolin-4-yl]amino]octa-3,5-diynylcarbamoyl]phenyl]pyrazol-4-yl]-2-[2-(2,2,2-trifluoroethylamino)-4-pyridyl]oxazole-4-carboxamide] | C (<20% degradation)
17 | NC(=O)c1nn(-c2ccc(C(=O)NCCCn3cc(CNc4cccc5c4C(=O)N(C4CCC(=O)NC4=O)C5=O)nn3)cc2)cc1NC(=O)c1coc(-c2ccnc(NCC(F)(F)F)c2)n1 (stereo not shown) [I-183, N-[3-carbamoyl-1-[4-[3-[4-[[[2-(2,6-dioxo-3-piperidyl)-1,3-dioxo-isoindolin-4-yl]amino]methyl]triazol-1-yl]propylcarbamoyl]phenyl]pyrazol-4-yl]-2-[2-(2,2,2-trifluoroethylamino)-4-pyridyl]oxazole-4-carboxamide] | B (>20-50% degradation)
18 | NC(=O)c1nn(-c2ccc(C(=O)NCCc3cn(CCCNc4cccc5c4C(=O)N(C4CCC(=O)NC4=O)C5=O)nn3)cc2)cc1NC(=O)c1coc(-c2ccnc(NCC(F)(F)F)c2)n1 (stereo not shown) [I-181, N-[3-carbamoyl-1-[4-[2-[1-[3-[[2-(2,6-dioxo-3-piperidyl)-1,3-dioxo-isoindolin-4-yl]amino]propyl]triazol-4-yl]ethylcarbamoyl]phenyl]pyrazol-4-yl]-2-[2-(2,2,2-trifluoroethylamino)-4-pyridyl]oxazole-4-carboxamide] | B (>20-50% degradation)
19 | CN(CCOCCOCCNc1cccc2c1C(=O)N(C1CCC(=O)NC1=O)C2=O)C(=O)c1ccc(-n2cc(NC(=O)c3coc(-c4ccnc(NCC(F)(F)F)c4)n3)c(C(N)=O)n2)cc1 (stereo not shown) [I-159, N-[3-carbamoyl-1-[4-[2-[2-[2-[[2-(2,6-dioxo-3-piperidyl)-1,3-dioxo-isoindolin-4-yl]amino]ethoxy]ethoxy]ethyl-methyl-carbamoyl]phenyl]pyrazol-4-yl]-2-[2-(2,2,2-trifluoroethylamino)-4-pyridyl]oxazole-4-carboxamide] | A (>50% degradation)
